Laboratory results taken from publication PMC11999280, “Design and screening of novel endosomal escape compounds that enhance functional delivery of oligonucleotides in vitro” (Molecular Therapy. Nucleic Acids, 2025).

What was measured:
Type in all cases: cell-based
[1] = tested on: mCherry-GAL9 expressing NCI-H358 cells; assay: GAL9 recruitment assay, NCI-H358; conditions: calculated mean from >3 independent exp.
Procedure: (§1) Experiments assessing GAL9 localization as an indicator for endosomal remodeling were performed as previously described[15] using 8× stablemCherry-GAL9 expressing cell lines, SHSY5Y, U2OS, 16HBE, NCI-H358, HuH7, HepG2, HEK293, and HeLa. For mCherry-GAL9 recruitment, 3,000 or 6,500 cells/well (depending upon cell line) were seeded into 384-well CellCarrier Ultra plates 24 h prior to treatment (PerkinElmer, catalog no. 6007558). An Echo 655T acoustic dispenser (Labcyte) was used for EEE dose-response preparation by transferring to the cell plate. At assay endpoints, cells were PBS washed, 4% paraformaldehyde fixed at room temperature […] (VWR, catalog no. 9713.1000), and nuclei stained with PBS +1 μg/mL Hoechst 33342 (Thermo Fisher Scientific, catalog no. H21492).
(§2) Imaging was performed using a spinning-disk confocal microscope (Yokogawa: CV8000) with a ×20w objective (numerical aperture 1.0). Cells and mCherry-GAL9 structure identification and quantification were done using Columbus image-analysis software (PerkinElmer version 2.9.0). Data processing was done using Spotfire (Tibco version 11.4) and Prism (GraphPad version 9.1.0). Image panels were assembled using the FigureJ plugin for FIJI.[43] All mCherry-GAL9 experiments were performed three times (N = 3) with duplicated wells per treatment (n = 2).

[2] = tested on: mCherry-GAL9 expressing HepG2 cells; assay: GAL9 recruitment assay, HepG2; conditions: calculated mean from >3 independent exp.
Procedure: as §1, §2

[3] = tested on: mCherry-GAL9 expressing HEK293 cells; assay: GAL9 recruitment assay, HEK293; conditions: calculated mean from >3 independent exp.
Procedure: as §1, §2

[4] = tested on: mCherry-GAL9 expressing HeLa cells; assay: GAL9 recruitment assay, HeLa; conditions: calculated mean from >3 independent exp.
Procedure: as §1, §2

[5] = tested on: mCherry-GAL9 expressing SHSY5Y cells; assay: GAL9 recruitment assay, SHSY5Y; conditions: calculated mean from >3 independent exp.
Procedure: as §1, §2

[6] = tested on: mCherry-GAL9 expressing 16HBE cells; assay: GAL9 recruitment assay, 16HBE; conditions: calculated mean from >3 independent exp.
Procedure: as §1, §2

[7] = tested on: mCherry-GAL9 expressing U2OS cells; assay: GAL9 recruitment assay, U2OS; conditions: calculated mean from >3 independent exp.
Procedure: as §1, §2

[8] = tested on: HeLa_Luc705 cells (pLuc/705 splice-switching reporter); assay: Functional 705-SSO delivery, luciferase splice-switching assay; conditions: HeLa-Luc705 + 2 µM SSO; EEE 2.5 - 3 µM; mean from >3 independent experiments
From the text: Therefore, next, we functionally screened the SSO delivery in the HeLa_Luc705 reporter cell line. HeLa_Luc705 carries a pLuc/705 splice-switching reporter luciferase gene interrupted by a mutated β-globin intron, which creates a preferentially used cryptic 5′ splice site leading to aberrant splicing. Functional SSO delivery masks the cryptic site, redirecting the splicing machinery to the right splicing site, allowing the measurement of luciferase expression (Figure S1).[25]^,[26]^,[27]^,[28] We used SSO transfection with LF2000 as transfection control and the previously published endosomal escape enhancer CMP05 (here, EEE2) as positive control.[15]
For the assessment of functional SSO therapeutics, a HeLa_Luc705 cell line was grown in DMEM media supplemented with 10% fetal bovine serum (FBS). For most treatments, 10,000 cells/well were seeded in a 96-well plate, 24 h pre-incubated with 1- to 2-μM oligonucleotide, and then treated at the described EEE concentration. At 24 h post-treatment, cells were PBS rinsed and collected for further analysis (treatments and incubation times changed accordingly to the experiment design). Luciferase readout was performed as previously described,[15] using a GloMax 96-well plate microplate luminometer (Promega) immediately after adding 30 μL auto-injected luciferin substrate (Promega Firefly Luciferase Assay System; Thermo Scientific, catalog no. 16174) in a white-walled 96-well plate containing 30 μL 0.1% Triton X-100 (Sigma-Aldrich) cell lysed. Photon exposure time and delay were set to 10 and 2 s after injection. LF2000 was used as the transfection reagent control (Thermo Scientific, catalog no. 11668019). For EEE experiments using 1 or 2 μM SSOs, the control was prepared using lipofection with 100–200 nM SSO; this is to avoid complex induced cell toxicity.
705-SSO was purchased from and synthesized by Integrated DNA Technologies. The 705-SSO sequence was previously published, containing 2′-O-methylated bases and only phosphorothioate-saturated backbone linkages were included.[15] The 705-SSO was high-performance liquid chromatography purified, shipped, and stored in IDTE buffer (10 mM Tris, 0.1 mM EDTA).

[9] = tested on: mCherry-GAL9 expressing HuH7 cells; assay: GAL9 recruitment assay, HuH7; conditions: calculated mean from >3 independent exp.
Procedure: as §1, §2

COc1nn(C2CCN(C)CC2)cc1Nc1ncc(F)c(-n2ccc3ccc(C#N)cc32)n1 [EEE14]
Gal9 response compared to reference ([1]; EEE 0.31 µM): 0.015 | Gal9 response compared to reference ([1]; EEE 0.62 µM): 0.019 | Gal9 response compared to reference ([1]; EEE 1.25 µM): 0.019 | Gal9 response compared to reference ([1]; EEE 2.5 µM): 0.026 | Gal9 response compared to reference ([1]; EEE 5 µM): 0.073 | Gal9 response compared to reference ([1]; EEE 10 µM): 0.457 | Gal9 response compared to reference ([2]; EEE 0.31 µM): 0.008 | Gal9 response compared to reference ([2]; EEE 0.62 µM): 0.005 | Gal9 response compared to reference ([2]; EEE 1.25 µM): 0.005 | Gal9 response compared to reference ([2]; EEE 2.5 µM): 0.005 | Gal9 response compared to reference ([2]; EEE 5 µM): 0.015 | Gal9 response compared to reference ([2]; EEE 10 µM): 0.155 | Gal9 response compared to reference ([3]; EEE 0.31 µM): 0.023 | Gal9 response compared to reference ([3]; EEE 0.62 µM): 0.019 | Gal9 response compared to reference ([3]; EEE 1.25 µM): 0.018 | Gal9 response compared to reference ([3]; EEE 2.5 µM): 0.035 | Gal9 response compared to reference ([3]; EEE 5 µM): 0.123 | Gal9 response compared to reference ([3]; EEE 10 µM): 0.443 | Gal9 response compared to reference ([4]; EEE 0.31 µM): 0.005 | Gal9 response compared to reference ([4]; EEE 0.62 µM): 0.005 | Gal9 response compared to reference ([4]; EEE 1.25 µM): 0.004 | Gal9 response compared to reference ([4]; EEE 2.5 µM): 0.006 | Gal9 response compared to reference ([4]; EEE 5 µM): 0.035 | Gal9 response compared to reference ([4]; EEE 10 µM): 0.213 | Gal9 response compared to reference ([5]; EEE 0.31 µM): 0.013 | Gal9 response compared to reference ([5]; EEE 0.62 µM): 0.014 | Gal9 response compared to reference ([5]; EEE 1.25 µM): 0.017 | Gal9 response compared to reference ([5]; EEE 2.5 µM): 0.083 | Gal9 response compared to reference ([5]; EEE 5 µM): 0.403 | Gal9 response compared to reference ([5]; EEE 10 µM): 0.645 | Gal9 response compared to reference ([6]; EEE 0.31 µM): 0.010 | Gal9 response compared to reference ([6]; EEE 0.62 µM): 0.013 | Gal9 response compared to reference ([6]; EEE 1.25 µM): 0.014 | Gal9 response compared to reference ([6]; EEE 2.5 µM): 0.031 | Gal9 response compared to reference ([6]; EEE 5 µM): 0.118 | Gal9 response compared to reference ([6]; EEE 10 µM): 0.421 | Gal9 response compared to reference ([7]; EEE 0.31 µM): 0.013 | Gal9 response compared to reference ([7]; EEE 0.62 µM): 0.013 | Gal9 response compared to reference ([7]; EEE 1.25 µM): 0.015 | Gal9 response compared to reference ([7]; EEE 2.5 µM): 0.023 | Gal9 response compared to reference ([7]; EEE 5 µM): 0.058 | Gal9 response compared to reference ([7]; EEE 10 µM): 0.232 | Luciferase expression compared to reference [8]: 0.590 | Gal9 response compared to reference ([9]; EEE 0.31 µM): 0.009 | Gal9 response compared to reference ([9]; EEE 0.62 µM): 0.007 | Gal9 response compared to reference ([9]; EEE 1.25 µM): 0.010 | Gal9 response compared to reference ([9]; EEE 2.5 µM): 0.016 | Gal9 response compared to reference ([9]; EEE 5 µM): 0.047 | Gal9 response compared to reference ([9]; EEE 10 µM): 0.280
